Here are results for five molecules from patent US10918645B2 (LIFEARC, priority 2016, dated 2021).

What all share (format): biochemical
Common to all, as to conditions: 1 μM inhibitor concentration

One assay deals with SGK1 (Homo sapiens (Human), UniProt O00141). Nature of the assay: SGK1 kinase selectivity assay. As for the experimental part: SGK (5-20 mU diluted in 20 mM MOPS pH 7.5, 1 mM EDTA, 0.01% Brij35, 5% glycerol, 0.1% b-mercaptoethanol, 1 mg/ml BSA) is assayed against a modified Crosstide peptide […] in a final volume of 25.5 μl containing 8 mM MOPS pH 7.0, 0.2 mM EDTA, 30 μM substrate peptide, 10 mM magnesium acetate and 0.02 mM [33P-g-ATP] (50-1000 cpm/pmole) and incubated for 30 min at room temperature. Assays are stopped by addition of 5 μl of 0.5 M (3%) orthophosphoric acid and then harvested onto P81 Unifilter plates with a wash buffer of 50 mM orthophosphoric acid.
Sequence of SGK1 (O00141 whole entry, species assumed): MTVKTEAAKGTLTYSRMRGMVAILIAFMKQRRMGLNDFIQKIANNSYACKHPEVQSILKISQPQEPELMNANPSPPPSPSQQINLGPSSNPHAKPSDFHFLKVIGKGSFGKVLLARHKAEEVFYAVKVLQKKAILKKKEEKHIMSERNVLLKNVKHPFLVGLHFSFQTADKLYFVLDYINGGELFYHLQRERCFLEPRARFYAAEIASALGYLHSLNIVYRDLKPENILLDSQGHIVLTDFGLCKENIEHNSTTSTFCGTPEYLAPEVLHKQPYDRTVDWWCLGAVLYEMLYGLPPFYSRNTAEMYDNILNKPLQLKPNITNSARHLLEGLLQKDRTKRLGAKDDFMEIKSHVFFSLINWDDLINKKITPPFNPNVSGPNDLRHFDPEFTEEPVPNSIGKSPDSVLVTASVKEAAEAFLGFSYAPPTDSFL

Another assay concerns the target LKB1 (Homo sapiens (Human), UniProt Q15831). In words: LKB1 kinase selectivity assay. As for the experimental part:
LKB1 (5-20 mU diluted in 50 mM Tris pH 7.5, 0.1 mM EGTA, 0.1% β-mercaptoethanol, 1 mg/ml BSA) is assayed against […] in a final volume of 25.5 μl containing 50 mM Tris pH 7.5, 0.1 mM EGTA, 0.2 mM […], 10 mM magnesium acetate and 0.02 mM [33P-γ-ATP] (50-1000 cpm/pmole) and incubated for 30 min at room temperature. Assays are stopped by addition of 5 μl of 0.5 M (3%) orthophosphoric acid and then harvested onto P81 Unifilter plates with a wash buffer of 50 mM orthophosphoric acid.

The target of the next assay is ERK2 (Homo sapiens (Human), UniProt P28482). In words: ERK2 kinase selectivity assay. As for the experimental part:
MAPK/ERK2 (5-20 mU diluted in 50 mM Tris pH 7.5, 0.1 mM EGTA, 0.1 mM Na3VO4, 0.1% b-mercaptoethanol, 1 mg/ml BSA) is assayed against MBP in a final volume of 25.5 μl in 25 mM Tris pH 7.5, 0.1 mM EGTA, 0.33 mg/ml MBP, 10 mM magnesium acetate and 0.05 mM [33P-g-ATP](500-1000 cpm/pmole) and incubated for 30 min at room temperature. Assays are stopped by addition of 5 μl of 0.5 M (3%) orthophosphoric acid and then harvested onto P81 Unifilter plates with a wash buffer of 50 mM orthophosphoric acid.

Another assay addresses CHK2 (Homo sapiens (Human), UniProt O96017). In words: CHK2 kinase selectivity assay. As for the experimental part:
CHK2 (5-20 mU diluted in 20 mM MOPS pH 7.5, 1 mM EDTA, 0.1% b-mercaptoethanol, 0.01% Brij-35, 5% glycerol, 1 mg/ml BSA) is assayed against CHKtide substrate peptide ([…]) in a final volume of 25.5 μl containing 8 mM MOPS pH 7.0, 0.2 mM EDTA, 200 μM CHKtide, 10 mM magnesium acetate and 0.02 mM [33P-g-ATP](50-1000 cpm/pmole) and incubated for 30 min at room temperature Assays are stopped by addition of 5 μl of 0.5 M (3%) orthophosphoric acid and then harvested onto P81 Unifilter plates with a wash buffer of 50 mM orthophosphoric acid.

Another assay deals with RSK1 (Homo sapiens (Human), UniProt Q15418). Nature of the assay: RSK1 kinase selectivity assay. How it is done:
MAPKAP-K1a (5-20 mU diluted in 20 mM MOPS pH 7.5, 1 mM EDTA, 0.01% Brij35, 5% glycerol, 0.1% b-mercaptoethanol, 1 mg/ml BSA) is assayed against […] in a final volume of 25.5 μl containing 50 mM Na-b-glycerophosphate pH 7.5, 0.5 mM EDTA, 30 μM substrate peptide, 10 mM magnesium acetate and 0.05 mM [33P-g-ATP] (50-1000 cpm/pmole) and incubated for 40 min at room temperature. Assays are stopped by addition of 5 μl of 0.5 M (3%) orthophosphoric acid and then harvested onto P81 Unifilter plates with a wash buffer of 50 mM orthophosphoric acid.

The target in the next assay is CHK1 (Homo sapiens (Human), UniProt O14757). In words: CHK1 kinase selectivity assay. How it is done: CHK1 (5-20 mU diluted in 20 mM MOPS pH 7.5, 1 mM EDTA, 0.1% b-mercaptoethanol, 0.01% Brij-35, 5% glycerol, 1 mg/ml BSA) is assayed against CHKtide substrate peptide ([…]) in a final volume of 25.5 μl containing 8 mM MOPS pH 7.0, 0.2 mM EDTA, 200 μM CHKtide, 10 mM magnesium acetate and 0.02 mM [33P-g-ATP](50-1000 cpm/pmole) and incubated for 30 min at room temperature Assays are stopped by addition of 5 μl of 0.5 M (3%) orthophosphoric acid and then harvested onto P81 Unifilter plates with a wash buffer of 50 mM orthophosphoric acid.
Sequence of CHK1 (O14757 whole entry, species assumed): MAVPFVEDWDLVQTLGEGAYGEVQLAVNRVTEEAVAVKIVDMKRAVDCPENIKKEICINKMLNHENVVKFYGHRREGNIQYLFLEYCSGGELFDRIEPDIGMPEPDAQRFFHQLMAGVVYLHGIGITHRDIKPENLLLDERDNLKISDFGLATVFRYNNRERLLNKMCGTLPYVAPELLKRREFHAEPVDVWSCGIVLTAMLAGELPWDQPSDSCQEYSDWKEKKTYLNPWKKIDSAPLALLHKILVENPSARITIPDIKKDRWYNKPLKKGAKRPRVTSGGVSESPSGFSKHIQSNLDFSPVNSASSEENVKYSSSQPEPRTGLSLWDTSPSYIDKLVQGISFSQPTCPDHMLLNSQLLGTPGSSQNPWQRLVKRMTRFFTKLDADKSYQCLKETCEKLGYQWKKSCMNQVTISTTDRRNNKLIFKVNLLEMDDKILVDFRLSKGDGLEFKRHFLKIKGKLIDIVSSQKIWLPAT

Sequence of ERK2 (P28482 whole entry, species assumed): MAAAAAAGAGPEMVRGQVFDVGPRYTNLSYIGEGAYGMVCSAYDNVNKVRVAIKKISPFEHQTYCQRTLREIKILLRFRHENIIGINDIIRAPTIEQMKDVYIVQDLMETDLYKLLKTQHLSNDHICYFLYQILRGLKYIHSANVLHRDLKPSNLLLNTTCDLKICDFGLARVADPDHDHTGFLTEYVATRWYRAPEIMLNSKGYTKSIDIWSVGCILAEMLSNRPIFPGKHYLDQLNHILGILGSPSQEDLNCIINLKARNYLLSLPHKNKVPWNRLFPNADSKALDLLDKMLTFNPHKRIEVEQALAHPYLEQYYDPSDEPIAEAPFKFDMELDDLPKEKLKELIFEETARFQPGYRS
Sequence of LKB1 (Q15831 whole entry, species assumed): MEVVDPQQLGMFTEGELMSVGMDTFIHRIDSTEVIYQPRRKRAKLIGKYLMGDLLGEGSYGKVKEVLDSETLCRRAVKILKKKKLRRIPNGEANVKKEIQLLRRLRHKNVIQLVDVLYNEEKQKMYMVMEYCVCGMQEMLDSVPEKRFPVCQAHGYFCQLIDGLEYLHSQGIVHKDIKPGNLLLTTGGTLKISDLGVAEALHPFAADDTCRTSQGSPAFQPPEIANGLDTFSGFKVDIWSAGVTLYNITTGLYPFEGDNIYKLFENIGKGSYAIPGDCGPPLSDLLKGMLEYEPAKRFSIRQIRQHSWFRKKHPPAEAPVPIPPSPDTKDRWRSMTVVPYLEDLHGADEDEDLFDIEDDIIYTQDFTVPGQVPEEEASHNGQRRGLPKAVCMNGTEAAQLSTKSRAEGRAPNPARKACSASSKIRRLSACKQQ
Sequence of LKB1 (Q7RTN6 whole entry partner, species assumed): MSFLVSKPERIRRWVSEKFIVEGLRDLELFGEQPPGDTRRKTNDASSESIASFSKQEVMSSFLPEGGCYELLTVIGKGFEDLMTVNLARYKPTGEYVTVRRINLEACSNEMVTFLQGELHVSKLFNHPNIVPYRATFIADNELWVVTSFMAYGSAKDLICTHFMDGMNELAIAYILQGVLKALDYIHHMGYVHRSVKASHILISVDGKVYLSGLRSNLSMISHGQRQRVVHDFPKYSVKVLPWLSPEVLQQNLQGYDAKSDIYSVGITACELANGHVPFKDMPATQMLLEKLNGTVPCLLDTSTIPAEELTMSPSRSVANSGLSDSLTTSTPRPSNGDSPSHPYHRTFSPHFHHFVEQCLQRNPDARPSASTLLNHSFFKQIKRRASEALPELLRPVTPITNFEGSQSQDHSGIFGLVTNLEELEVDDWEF
Sequence of LKB1 (Q9Y376 whole entry partner, species assumed): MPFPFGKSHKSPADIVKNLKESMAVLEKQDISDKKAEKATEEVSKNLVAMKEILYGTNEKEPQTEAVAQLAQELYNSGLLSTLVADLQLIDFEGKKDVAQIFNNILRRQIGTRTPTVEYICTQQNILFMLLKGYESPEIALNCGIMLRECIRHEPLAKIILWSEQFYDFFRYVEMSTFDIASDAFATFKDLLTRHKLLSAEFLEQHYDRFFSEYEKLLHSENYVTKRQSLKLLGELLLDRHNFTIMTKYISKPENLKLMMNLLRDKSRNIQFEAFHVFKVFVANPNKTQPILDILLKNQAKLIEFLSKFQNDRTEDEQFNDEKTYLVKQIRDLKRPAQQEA
Sequence of CHK2 (O96017 whole entry, species assumed): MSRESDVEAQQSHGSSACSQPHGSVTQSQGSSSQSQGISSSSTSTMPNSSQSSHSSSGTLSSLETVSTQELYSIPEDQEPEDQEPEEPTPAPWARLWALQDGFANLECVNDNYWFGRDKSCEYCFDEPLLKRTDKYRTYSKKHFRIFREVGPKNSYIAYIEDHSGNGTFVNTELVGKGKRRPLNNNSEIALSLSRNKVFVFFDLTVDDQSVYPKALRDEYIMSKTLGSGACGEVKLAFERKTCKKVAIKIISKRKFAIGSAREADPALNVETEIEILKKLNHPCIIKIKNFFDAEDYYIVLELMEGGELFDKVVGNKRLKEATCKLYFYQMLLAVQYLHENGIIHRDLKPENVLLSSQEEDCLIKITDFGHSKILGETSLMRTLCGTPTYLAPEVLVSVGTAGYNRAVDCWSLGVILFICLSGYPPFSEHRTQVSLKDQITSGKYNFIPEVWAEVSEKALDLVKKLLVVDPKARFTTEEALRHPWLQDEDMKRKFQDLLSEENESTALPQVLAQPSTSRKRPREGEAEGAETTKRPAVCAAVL
Sequence of RSK1 (Q15418 whole entry, species assumed): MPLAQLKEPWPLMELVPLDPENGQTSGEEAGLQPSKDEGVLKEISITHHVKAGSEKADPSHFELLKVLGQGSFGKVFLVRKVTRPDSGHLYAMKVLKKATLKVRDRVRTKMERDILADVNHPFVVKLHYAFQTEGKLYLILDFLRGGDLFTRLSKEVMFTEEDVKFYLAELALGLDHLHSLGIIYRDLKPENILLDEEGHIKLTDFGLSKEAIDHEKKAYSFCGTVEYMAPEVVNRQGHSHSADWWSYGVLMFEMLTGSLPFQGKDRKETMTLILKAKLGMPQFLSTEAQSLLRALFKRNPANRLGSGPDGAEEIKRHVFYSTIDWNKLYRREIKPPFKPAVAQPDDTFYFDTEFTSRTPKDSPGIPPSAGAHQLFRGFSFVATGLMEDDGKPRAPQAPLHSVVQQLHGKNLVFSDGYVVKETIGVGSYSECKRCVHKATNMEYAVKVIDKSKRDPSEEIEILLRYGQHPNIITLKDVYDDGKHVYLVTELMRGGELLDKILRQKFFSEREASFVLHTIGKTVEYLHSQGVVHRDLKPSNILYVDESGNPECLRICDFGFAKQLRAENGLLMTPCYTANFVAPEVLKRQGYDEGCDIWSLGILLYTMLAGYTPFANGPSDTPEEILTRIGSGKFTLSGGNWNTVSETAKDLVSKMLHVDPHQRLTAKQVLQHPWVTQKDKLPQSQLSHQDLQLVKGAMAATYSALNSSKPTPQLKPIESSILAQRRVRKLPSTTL

On to `c1cc2[nH]nc3c2c(n1)N(C1CCC1)CCC3` [Example 22, 6-cyclobutyl-6,7,8,9-tetrahydro-2H-1,2,5,6-tetraazabenzo[cd]azulene], for which the “percentage inhibition of SGK1” value on SGK1 is 13 percentage. Besides, the “percentage inhibition of LKB1” value on LKB1 is recorded as 20 percentage. The “percentage inhibition of ERK2” value at ERK2 is 0 percentage. Besides, the “percentage inhibition of CHK2” value at CHK2 stood at 11 percentage. For the same molecule, the “percentage inhibition of RSK1” value at RSK1 is 0 percentage. Moreover, the “percentage inhibition of CHK1” value on CHK1 is 2 percentage.
With `c1cc2[nH]nc3c2c(n1)N(C1CCCC1)CCC3` [Example 23, 6-cyclopentyl-6,7,8,9-tetrahydro-2H-1,2,5,6-tetraazabenzo[cd]azulene], at SGK1, the “percentage inhibition of SGK1” value was 0 percentage. Also, the “percentage inhibition of LKB1” value at LKB1 was found to be 16 percentage. At ERK2, the “percentage inhibition of ERK2” value is listed as 0 percentage. In addition, the “percentage inhibition of CHK2” value at CHK2 came to 0 percentage. Also, the “percentage inhibition of RSK1” value at RSK1 worked out at 0 percentage. The “percentage inhibition of CHK1” value on CHK1 is recorded as 0 percentage.
With `c1cc2[nH]nc3c2c(n1)N(C1CCOCC1)CCC3` [Example 29, 6-(tetrahydro-2H-pyran-4-yl)-6,7,8,9-tetrahydro-2H-1,2,5,6-tetraazabenzo[cd]azulene], the “percentage inhibition of SGK1” value at SGK1 was 18 percentage. At LKB1, the “percentage inhibition of LKB1” value was 6 percentage. Also, the “percentage inhibition of ERK2” value at ERK2 is given as 0 percentage. Besides, the “percentage inhibition of CHK2” value on CHK2 worked out at 2 percentage. The “percentage inhibition of RSK1” value on RSK1 came out at 10 percentage. The “percentage inhibition of CHK1” value at CHK1 is on record as 0 percentage.
For the molecule `CN1CCC(N2Cc3ccccc3-c3n[nH]c4ccnc2c34)CC1` [Example 55], the “percentage inhibition of SGK1” value at SGK1 amounted to 10 percentage. For the same molecule, the “percentage inhibition of LKB1” value at LKB1 is 0 percentage. In addition, the “percentage inhibition of ERK2” value at ERK2 was 0 percentage. The “percentage inhibition of CHK2” value at CHK2 is listed as 80 percentage. Moreover, at RSK1, the “percentage inhibition of RSK1” value is on record as 41 percentage. For the same molecule, on CHK1, the “percentage inhibition of CHK1” value turned out to be 42 percentage.
In the case of `CC(C)n1ncc2c1CN(C1CCN(C)CC1)c1nccc3[nH]nc-2c13` [Example 68], the “percentage inhibition of SGK1” value on SGK1 is recorded as 23 percentage. The “percentage inhibition of LKB1” value on LKB1 is recorded as 0 percentage. At ERK2, the “percentage inhibition of ERK2” value was 11 percentage. The “percentage inhibition of CHK2” value on CHK2 worked out at 53 percentage. Besides, the “percentage inhibition of RSK1” value on RSK1 was 69 percentage. Also, on CHK1, the “percentage inhibition of CHK1” value was determined as 28 percentage.
